Tests used:
Experiment in all cases: relative viability (nuclei count vs DMSO), 5 days (fraction); higher = more cells survive
NCI-H2023 = test system: NCI-H2023
In short: (§1)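 Cells from lung cancer lines were seeded into 1536-well plates and, one day later, dosed by pin tool. Treatments were either a single drug or a fixed dose of an anchor drug with five library-drug doses (not always all listed) in √10 steps. After 5 days, nuclei were stained in a one-step fixation (final 0.05% Triton X-100, 1% formaldehyde, 1 ug/ml Hoechst) and counted on 4× images, and relative viability is the treated-to-vehicle nuclei ratio, as the median of duplicate plates.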

NCI-H460 = test system: NCI-H460
In short: as §1

BEN = test system: BEN
In short: as §1

LOU-NH91 = test system: LOU-NH91
In short: as §1

NCI-H1563 = test system: NCI-H1563
In short: as §1

NCI-H1395 = test system: NCI-H1395
In short: as §1

PC-3 [JPC-3] = test system: PC-3 [JPC-3]
In short: as §1

NCI-H2126 = test system: NCI-H2126
In short: as §1

LXF-289 = test system: LXF-289
In short: as §1

NCI-H2170 = test system: NCI-H2170
In short: as §1

LU99A = test system: LU99A
In short: as §1

NCI-H1666 = test system: NCI-H1666
In short: as §1

NCI-H1915 = test system: NCI-H1915
In short: as §1

NCI-H322M = test system: NCI-H322M
In short: as §1

NCI-H23 = test system: NCI-H23
In short: as §1

SK-LU-1 = test system: SK-LU-1
In short: as §1

HARA = test system: HARA
In short: as §1

A-427 = test system: A-427
In short: as §1

NCI-H1793 = test system: NCI-H1793
In short: as §1

LCLC-97TM1 = test system: LCLC-97TM1
In short: as §1

For `COCC1(CO)C(=O)C2CCN1CC2` (centres undefined) [PRIMA-1MET] + CS(=O)(=O)CCNCc1ccc(-c2ccc3ncnc(Nc4ccc(OCc5cccc(F)c5)c(Cl)c4)c3c2)o1 [Lapatinib] (partner 2 µM), which relative viability (NCI-H2023; first compound 0.2 µM) is on record?
The relative viability was 0.991.

What about the relative viability (NCI-H2023; first compound 0.6325 µM) of the same compound?
Its relative viability is 0.26.

What about the relative viability (NCI-H2023; first compound 2 µM) of the same compound?
The relative viability was 0.639.

And the relative viability (NCI-H2023; first compound 6.325 µM)?
Its relative viability is 0.893.

What about the relative viability (NCI-H2023; first compound 20 µM) of the same compound?
Its relative viability is 0.841.

What about the relative viability (NCI-H460; first compound 0.2 µM) of the same compound?
Its relative viability is 0.993.

And the relative viability (NCI-H460; first compound 0.6325 µM)?
Its relative viability is 0.826.

What about the relative viability (NCI-H460; first compound 2 µM) of the same compound?
Its relative viability is 0.893.

And the relative viability (NCI-H460; first compound 6.325 µM)?
Its relative viability is 0.607.

And the relative viability (NCI-H460; first compound 20 µM)?
The relative viability was 0.0047.

What about the relative viability (BEN; first compound 0.2 µM) of the same compound?
Its relative viability is 0.786.

And the relative viability (BEN; first compound 0.6325 µM)?
The relative viability was 0.774.

What about the relative viability (BEN; first compound 6.325 µM) of the same compound?
Its relative viability is 0.82.

What about the relative viability (BEN; first compound 20 µM) of the same compound?
The relative viability was 0.687.

And the relative viability (LOU-NH91; first compound 0.2 µM)?
The relative viability was 0.806.

What about the relative viability (LOU-NH91; first compound 0.6325 µM) of the same compound?
Its relative viability is 0.715.

And the relative viability (LOU-NH91; first compound 2 µM)?
The relative viability was 0.656.

And the relative viability (LOU-NH91; first compound 6.325 µM)?
Its relative viability is 0.692.

What about the relative viability (LOU-NH91; first compound 20 µM) of the same compound?
Its relative viability is 0.496.

What about the relative viability (NCI-H1563; first compound 0.2 µM) of the same compound?
Its relative viability is 0.991.

And the relative viability (NCI-H1563; first compound 0.6325 µM)?
The relative viability was 0.988.

And the relative viability (NCI-H1563; first compound 2 µM)?
The relative viability was 0.606.

What about the relative viability (NCI-H1563; first compound 6.325 µM) of the same compound?
Its relative viability is 1.09.

And the relative viability (NCI-H1563; first compound 20 µM)?
Its relative viability is 0.455.

And the relative viability (NCI-H1395; first compound 0.2 µM)?
The relative viability was 0.922.

And the relative viability (NCI-H1395; first compound 0.6325 µM)?
Its relative viability is 0.701.

What about the relative viability (NCI-H1395; first compound 2 µM) of the same compound?
Its relative viability is 1.09.

What about the relative viability (NCI-H1395; first compound 6.325 µM) of the same compound?
The relative viability was 0.89.

What about the relative viability (NCI-H1395; first compound 20 µM) of the same compound?
Its relative viability is 0.908.

And the relative viability (PC-3 [JPC-3]; first compound 0.2 µM)?
Its relative viability is 0.544.

And the relative viability (PC-3 [JPC-3]; first compound 0.6325 µM)?
Its relative viability is 0.392.

And the relative viability (PC-3 [JPC-3]; first compound 2 µM)?
Its relative viability is 0.456.

What about the relative viability (PC-3 [JPC-3]; first compound 6.325 µM) of the same compound?
Its relative viability is 0.447.

What about the relative viability (PC-3 [JPC-3]; first compound 20 µM) of the same compound?
The relative viability was 0.478.

And the relative viability (NCI-H2126; first compound 0.2 µM)?
The relative viability was 0.875.

And the relative viability (NCI-H2126; first compound 0.6325 µM)?
Its relative viability is 0.757.

And the relative viability (NCI-H2126; first compound 2 µM)?
The relative viability was 0.733.

What about the relative viability (NCI-H2126; first compound 6.325 µM) of the same compound?
Its relative viability is 0.815.

And the relative viability (NCI-H2126; first compound 20 µM)?
Its relative viability is 0.773.

And the relative viability (LXF-289; first compound 0.2 µM)?
The relative viability was 0.878.

And the relative viability (LXF-289; first compound 0.6325 µM)?
The relative viability was 0.879.

And the relative viability (LXF-289; first compound 2 µM)?
Its relative viability is 0.979.

And the relative viability (LXF-289; first compound 6.325 µM)?
Its relative viability is 0.923.

And the relative viability (LXF-289; first compound 20 µM)?
The relative viability was 0.836.

What about the relative viability (NCI-H2170; first compound 0.2 µM) of the same compound?
The relative viability was 0.263.

What about the relative viability (NCI-H2170; first compound 0.6325 µM) of the same compound?
Its relative viability is 0.236.

And the relative viability (NCI-H2170; first compound 2 µM)?
Its relative viability is 0.237.

And the relative viability (NCI-H2170; first compound 6.325 µM)?
Its relative viability is 0.276.

And the relative viability (NCI-H2170; first compound 20 µM)?
The relative viability was 0.273.

What about the relative viability (LU99A; first compound 0.2 µM) of the same compound?
The relative viability was 1.1.

And the relative viability (LU99A; first compound 0.6325 µM)?
The relative viability was 0.905.

And the relative viability (LU99A; first compound 2 µM)?
Its relative viability is 0.955.

And the relative viability (LU99A; first compound 6.325 µM)?
The relative viability was 0.91.

What about the relative viability (LU99A; first compound 20 µM) of the same compound?
The relative viability was 0.0802.

What about the relative viability (NCI-H1666; first compound 0.2 µM) of the same compound?
The relative viability was 0.765.

What about the relative viability (NCI-H1666; first compound 0.6325 µM) of the same compound?
Its relative viability is 0.584.

And the relative viability (NCI-H1666; first compound 2 µM)?
The relative viability was 0.596.

And the relative viability (NCI-H1666; first compound 6.325 µM)?
The relative viability was 0.688.

And the relative viability (NCI-H1666; first compound 20 µM)?
The relative viability was 0.275.

And the relative viability (NCI-H1915; first compound 0.2 µM)?
Its relative viability is 1.07.

What about the relative viability (NCI-H1915; first compound 0.6325 µM) of the same compound?
Its relative viability is 0.845.

What about the relative viability (NCI-H1915; first compound 2 µM) of the same compound?
The relative viability was 0.864.

What about the relative viability (NCI-H1915; first compound 6.325 µM) of the same compound?
The relative viability was 0.925.

And the relative viability (NCI-H1915; first compound 20 µM)?
The relative viability was 0.958.

And the relative viability (NCI-H322M; first compound 0.2 µM)?
Its relative viability is 0.634.

And the relative viability (NCI-H322M; first compound 6.325 µM)?
Its relative viability is 0.629.

And the relative viability (NCI-H322M; first compound 20 µM)?
The relative viability was 0.61.

And the relative viability (NCI-H23; first compound 0.2 µM)?
The relative viability was 1.29.

And the relative viability (NCI-H23; first compound 0.6325 µM)?
Its relative viability is 0.951.

What about the relative viability (NCI-H23; first compound 2 µM) of the same compound?
Its relative viability is 0.897.

What about the relative viability (NCI-H23; first compound 6.325 µM) of the same compound?
Its relative viability is 0.961.

What about the relative viability (NCI-H23; first compound 20 µM) of the same compound?
The relative viability was 0.117.

What about the relative viability (SK-LU-1; first compound 0.2 µM) of the same compound?
The relative viability was 1.12.

And the relative viability (SK-LU-1; first compound 0.6325 µM)?
The relative viability was 0.667.

What about the relative viability (SK-LU-1; first compound 2 µM) of the same compound?
The relative viability was 0.61.

And the relative viability (SK-LU-1; first compound 6.325 µM)?
The relative viability was 0.784.

What about the relative viability (SK-LU-1; first compound 20 µM) of the same compound?
The relative viability was 0.235.

What about the relative viability (HARA; first compound 0.2 µM) of the same compound?
Its relative viability is 0.782.

What about the relative viability (HARA; first compound 0.6325 µM) of the same compound?
Its relative viability is 0.649.

And the relative viability (HARA; first compound 6.325 µM)?
The relative viability was 0.804.

What about the relative viability (HARA; first compound 20 µM) of the same compound?
The relative viability was 0.706.

What about the relative viability (A-427; first compound 0.2 µM) of the same compound?
Its relative viability is 1.08.

And the relative viability (A-427; first compound 0.6325 µM)?
The relative viability was 0.849.

And the relative viability (A-427; first compound 2 µM)?
The relative viability was 0.895.

What about the relative viability (A-427; first compound 6.325 µM) of the same compound?
The relative viability was 1.02.

What about the relative viability (A-427; first compound 20 µM) of the same compound?
Its relative viability is 0.982.

And the relative viability (NCI-H1793; first compound 0.2 µM)?
Its relative viability is 0.707.

What about the relative viability (NCI-H1793; first compound 0.6325 µM) of the same compound?
Its relative viability is 0.68.

And the relative viability (NCI-H1793; first compound 6.325 µM)?
The relative viability was 0.592.

What about the relative viability (NCI-H1793; first compound 20 µM) of the same compound?
Its relative viability is 0.646.

What about the relative viability (LCLC-97TM1; first compound 0.2 µM) of the same compound?
Its relative viability is 0.776.

What about the relative viability (LCLC-97TM1; first compound 2 µM) of the same compound?
Its relative viability is 0.998.

What about the relative viability (LCLC-97TM1; first compound 6.325 µM) of the same compound?
Its relative viability is 1.08.

What about the relative viability (LCLC-97TM1; first compound 20 µM) of the same compound?
Its relative viability is 0.148.

Source: the supplement of paper PMC10307832
